Literature values in patent publication US7276500B2, “Substituted amides, their preparation and use” (Abbott GmbH & Co. KG, priority 1998, dated 2007).

Key:
[1] = system: calpain (cleavage of pp60src in platelets); details: Oda et al., J. Biol. Chem. 1993
[2] = system: calpain; details: literature statement
[3] = system: cell membranes; details: literature statement

CCCC[C@@H](C=O)NC(=O)[C@H](CC(C)C)NC(=O)OCc1ccccc1 [calpeptin]
cleavage of pp60src after activation of platelets [1]: can be prevented

Ph—CONH—CH(CH2Ph)—CO—COCOOCH3
calpain inhibition [2]: only a weak calpain inhibitor

CC(C)C[C@H](NC(=O)[C@H]1O[C@@H]1C(=O)O)C(=O)NCCCCN=C(N)N [E 64]
crossing of cell membranes [3]: cross cell membranes only poorly
effect on cells [3]: only a poor effect on cells
calpain inhibition [2]: good calpain inhibitors

CC(=O)N[C@@H](CC(C)C)C(=O)N[C@@H](CC(C)C)C(=O)N[C@H](C=O)CCCNC(=N)N [leupeptin]
crossing of cell membranes [3]: cross cell membranes only poorly
effect on cells [3]: only a poor effect on cells
calpain inhibition [2]: good calpain inhibitors
